One data set relates to MCF7. Description: Antiproliferative activity against human MCF7 cells. It is filed as functional, cell-based.
The subject of data set [1] is HeLa. Description: Antiproliferative activity against human HeLa cells at 10 to 100 uM incubated for 48 hrs by MTT assay. It is filed as functional, cell-based. In general terms: Formazan colour is commonly taken as a measure of viable cells.
Another data set relates to HEK293. In words: Cytotoxicity in HEK293 cells assessed as reduction in cel viability incubated for 48 hrs by MTT assay. It is filed as cell-based. The conditions noted are these: Homo sapiens, HEK293, 48 h.
Data set [2] has as its system A549. Description: Antiproliferative activity against human A549 cells at 10 to 100 uM incubated for 48 hrs by MTT assay. It is filed as functional, cell-based.
Data set [3] concerns A549. In words: Antiproliferative activity against human A549 cells incubated for 48 hrs by MTT assay. It is filed as functional, cell-based. The conditions noted are these: A549, 48 h.
Data set [4] relates to B16-F10. In words: Antiproliferative activity against mouse B16F10 cells incubated for 48 hrs by MTT assay. It is filed as functional, cell-based. The note with it: B16-F10, 48 h.
The nature of data set [5]: Selectivity index, ratio of IC50 for cytotoxicity in HEK293 cells assessed as reduction in cell viability incubated for 48 hrs by MTT assay to IC50 for antiproliferative activity against human HeLa cells incubated for 48 hrs by MTT assay. It is filed as toxicity, cell-based. The conditions noted are these: read-out: Ratio IC50.
Data set [6] has as its system HeLa. Description: Antiproliferative activity against human HeLa cells incubated for 48 hrs by MTT assay. The format is functional, cell-based.
Data set [7] can be described thus: Selectivity index, ratio of IC50 for cytotoxicity in HEK293 cells assessed as reduction in cell viability incubated for 48 hrs by MTT assay to IC50 for antiproliferative activity against mouse B16F10 cells incubated for 48 hrs by MTT assay. The conditions noted are these: read-out: Ratio IC50. It is filed as toxicity, cell-based.
Data set [8] is described as follows: Selectivity index, ratio of IC50 for cytotoxicity in HEK293 cells assessed as reduction in cell viability incubated for 48 hrs by MTT assay to IC50 for antiproliferative activity against human A549 cells incubated for 48 hrs by MTT assay. It is filed as toxicity, cell-based. The conditions noted are these: read-out: Ratio IC50.
Data set [9] has as its system B16-F10. In words: Antiproliferative activity against mouse B16F10 cells at 10 to 100 uM incubated for 48 hrs by MTT assay. It is filed as functional, cell-based.
Data set [10] has as its system B16-F10. Description: Induction of apoptosis in mouse B16F10 cells assessed as late apoptosis cells level at 7 uM incubated for 48 hrs by Annexin V-FITC and PI staining based flow cytometry (reference value: 0.02 +/- 0.21%). The format is functional.
The test system of data set [11] is B16-F10. In words: Induction of apoptosis in mouse B16F10 cells assessed as early apoptosis cells level at 7 uM incubated for 48 hrs by Annexin V-FITC and PI staining based flow cytometry (reference value: 0.03 +/- 0.013%). It is filed as functional. (In general: Flow cytometry measures light scatter and fluorescence of single cells or particles in a stream.)

The source made the active and inactive calls. The calls are words filed in the database; no cut-off is given here.

Turning to `COc1ccccc1[Se]c1c(-c2ccccc2)nc2ccc(F)cn12`, the IC50 – broadly, the point on the concentration scale where inhibition reaches its midpoint – in the data set on MCF7 was found to be 12.5 µM.

`COc1ccc(-c2cn3cc(C4=CCN(S(=O)(=O)CCc5ccccc5)CC4)ccc3n2)cc1OC`: the result in the data set with HeLa [1], in the data set with A549 [2] and with B16-F10 [9] was Active. The IC50 with HEK293 came out at 70.3 µM; in the data set on A549 [3] it was 7.69 µM; in the data set on B16-F10 [4] it was 8.08 µM; with HeLa [6], 8.98 µM. The selectivity ratio at 48 h in [5], in data set [7] and in data set [8] was 10 to 14 each time.

As for `COc1ccc(-c2cn3cc(C4=CCN(S(=O)(=O)C5CCCCC5)CC4)ccc3n2)cc1OC`, the result with HeLa [1], in the data set on A549 [2] and with B16-F10 [9] was Active. Also, the 50% inhibitory concentration (IC50) is 75 µM with HEK293, 4.49 µM with A549 [3], 11.1 µM in the data set on B16-F10 [4] and 9.99 µM in the data set on HeLa [6]. In addition, the selectivity ratio at 48 h in data set [5], in data set [7] and in data set [8] was 10 to 14 throughout.

For `COc1ccc(-c2cn3cc(C4=CCN(S(=O)(=O)C5CCCC5)CC4)ccc3n2)cc1OC`, the result in the data set on HeLa [1], with A549 [2] and with B16-F10 [9] was Active. Further, the IC50 worked out at 102 µM in the data set on HEK293, 6.47 µM with A549 [3], 7.69 µM in the data set with B16-F10 [4] and 6.47 µM in the data set on HeLa [6]. Further, the selectivity ratio at 48 h in data set [5], in data set [7] and in data set [8] was 10 to 14 throughout. Moreover, the Activity with B16-F10 [10] was 55.6%; with B16-F10 [11] it was 35.4%.

In the case of `COc1ccc(-c2cn3cc(C4=CCN(C(=O)C(C)(C)C)CC4)ccc3n2)cc1OC`, the outcome with HeLa [1], with A549 [2] and in the data set with B16-F10 [9] was Active. For the same compound, the IC50 in the data set on HEK293 came to 66.6 µM; with A549 [3], 4.34 µM; in the data set with B16-F10 [4], 7.1 µM; with HeLa [6], 5.48 µM. The selectivity ratio at 48 h in [5], in data set [7] and in data set [8] was 10 to 14 throughout. The Activity with B16-F10 [10] turned out to be 57.3%; in the data set on B16-F10 [11] it was 25.4%.

On to `COc1ccc(-c2cn3cc(C4=CCN(C(=O)c5cccc(C(F)(F)F)c5)CC4)ccc3n2)cc1OC`, for which the outcome in the data set with HeLa [1], with A549 [2] and with B16-F10 [9] was Active. The IC50 is 68.4 µM in the data set on HEK293, 3.69 µM in the data set on A549 [3], 7.89 µM in the data set with B16-F10 [4] and 4.86 µM in the data set with HeLa [6]. For the same compound, the selectivity ratio at 48 h in data set [5], in data set [7] and in [8] was 10 to 14 each time.

The values are drawn from ChEMBL document CHEMBL4385672, “Design, synthesis and biological evaluation of 2-(3,4-dimethoxyphenyl)-6 (1,2,3,6-tetrahydropyridin-4-yl)imidazo[1,2-a]pyridine analogues as antiproliferative agents” (Bioorg Med Chem Lett, 2019).
